Reference: patent US7968526B2, “Antisense oligonucleotides directed to ribonucleotide reductase R2 and uses thereof in the treatment of cancer” (Lorus Therapeutics Inc., priority 2003, dated 2011)
“Also recorded” adds a separate entry of the source.

Legend:
[1] = system: MDA-MB-231 human breast cancer cells; assay: MDA-MB-231 breast tumour xenograft in CD-1 nude mice, combination with taxol or doxorubicin (1.7); type: in vivo, human cells in mice; settings: MDA-MB-231 (breast), CD-1; SEQ ID NO:1 10 mg/kg i.v. every other day; Taxol 10 mg/kg i.v. weekly; doxorubicin 5 mg/kg i.v. weekly
Experimental: (§1) After 52 days the mice were sacrificed and the tumours weighed. […] Mitoxantrone was administered intravenously once at the beginning of the treatments at a dose of 2 mg/kg (FIG. 4A) or once a week for four weeks at a reduced dose of 0.8 mg/kg (FIG. 4B). All treatments were stopped at day 50 (FIG. 4A) or 48 (FIG. 4B), respectively. […] Mitoxantrone was administered intravenously once at the beginning of the treatments at a dose of 2 mg/kg (FIG. 5A) or once a week for four weeks at a reduced dose of 0.8 mg/kg (FIG. 5B). All treatments were stopped at day 42 (FIG. 5A) or 38 (FIG. 5B), respectively. […] A2058 is a metastatic melanoma cell line. […] All treatments were stopped at day 24. […] Taxol was administered intravenously once a week at a dose of 10 mg/kg for three (FIG. 7A) or four weeks (FIG. 7C). Doxorubicin was administered intravenously once a week at a dose of 5 mg/kg for first three weeks (FIG. 7A) or for two weeks (FIG. 7C). All treatments were stopped at day 33 (FIG. 7A) or at day 26 (FIG. 7C), respectively. […] In FIG. 7C, antitumour activities were estimated by the inhibition of tumour volume, which was measured with calipers. Each point represents mean tumour volume calculated from 10 animals per experimental group. […] Taxol was administered intravenously once a week for first three weeks and intraperitoneally once a week for next two weeks at a dose of 10 mg/kg. Cisplatin was administered intravenously once a week for first three weeks and intraperitoneally once a week for next two weeks at a dose of 4 mg/kg. All treatments were stopped at day 40. Antitumour activities were estimated by the inhibition of tumour volume, which was measured with caliper. Each point represents mean tumour volume calculated from 9 animals per experimental group.

[2] = system: MDA-CDDP-S4 human in vivo-selected Cisplatin-resistant breast adenocarcinoma cells; assay: MDA-CDDP-S4 Cisplatin-resistant breast adenocarcinoma, fat pad, CB-17 SCID mice, combination with Taxol (2.4); parameters: species or system human cells in mice; settings: MDA-CDDP-S4 (breast), Cisplatin resistant, SCID, SEQ ID NO:1 10 mg/kg i.v. every other day, Taxol 10 mg/kg i.p. weekly
Experimental: (§2) BxPC-3 is a gemcitabine resistant call line. […] Gemcitabine was administered intravenously every three days at a dose of 100 mg/kg. Antitumour activities were estimated by the inhibition of tumour volume, which was measured with caliper. Each point represents mean tumour volume calculated from 10 animals per experimental group. […] Hela S3 is a hydroxyurea resistant cell line. […] Hydroxyurea was administered intraperitoneally every day at a dose of 250 mg/kg for 10 days. Cisplatin was administered intravenously once a week for three weeks at a dose of 4 mg/kg. Antitumour activities were estimated by the inhibition of tumour volume, which was measured with caliper. Each point represents mean tumour volume calculated from 10 animals per experimental group. […] Cisplatin was administered intravenously once a week for three weeks at a dose of 4 mg/kg. Taxol was administered intravenously once a week for three weeks at a dose of 10 mg/kg. Antitumour activities were estimated by the inhibition of tumour volume, which was measured with caliper. Each point represents mean tumour volume calculated from 10 animals per experimental group. […] Taxol was administered i.p. once a week at a dose of 10 mg/kg. Antitumour activities were estimated by the inhibition of tumour volume (FIG. 12A), which was measured with calipers. Each point represents mean tumour volume calculated from 10 animals per experimental group. Animals were sacrificed and tumour weights taken at the end of the study (FIG. 12C). […] Cisplatin was administered intravenously once a week for four weeks at a dose of 4 mg/kg. Taxol was administered intravenously once a week for four weeks at a dose of 20 mg/kg. Antitumour activities were estimated by the inhibition of tumour volume, which was measured with caliper. Each point represents mean tumour volume calculated from 9-10 animals per experimental group. […] Cisplatin was administered intravenously once a week for four weeks at a dose of 4 mg/kg. Antitumour activities were estimated by the inhibition of tumour volume, which was measured with caliper. Each point represents mean tumour volume calculated from 10 animals per experimental group. At the end of the study the animals were sacrificed and tumours weighed. […] Taxol was administered i.p. once a week at a dose of 10 mg/kg. Anti-tumour activity was estimated by the inhibition of tumour volume, which was measured with caliper. Each point represents mean tumour volume calculated from 10 animals per experimental group. In addition animals were sacrificed and tumour weights taken at the end of the study. […] CPT-11 was administered i.p. for 5 days at a dose of 20 mg/kg/day. Antitumour activities were estimated by the inhibition of tumour volume, which was measured with caliper. Each point represents mean tumour volume calculated from 10 animals per experimental group. Tumour weights were measured after animals were sacrificed at the end of the treatment. These cells are not resistant to CPT-11 which was used as a positive control.

[3] = system: MDA-MB435-To.1 human Taxol-resistant breast adenocarcinoma cells; assay: MDA-MB435-To.1 Taxol-resistant breast adenocarcinoma, fat pad, SCID mice (2.5); type: in vivo, human cells in mice
Experimental: as §2

[4] = system: Human taxol-resistant promyelocytic leukaemia cells (HL-60); assay: HL-60 taxol-resistant promyelocytic leukaemia tumour in SCID mice (2.7); type: in vivo, human cells in mice; settings: SEQ ID NO:1 10 mg/kg i.v. every other day
Experimental: BxPC-3 is a gemcitabine resistant call line. […] Gemcitabine was administered intravenously every three days at a dose of 100 mg/kg. Antitumour activities were estimated by the inhibition of tumour volume, which was measured with caliper. Each point represents mean tumour volume calculated from 10 animals per experimental group. […] Hela S3 is a hydroxyurea resistant cell line. […] Hydroxyurea was administered intraperitoneally every day at a dose of 250 mg/kg for 10 days. Cisplatin was administered intravenously once a week for three weeks at a dose of 4 mg/kg. Antitumour activities were estimated by the inhibition of tumour volume, which was measured with caliper. Each point represents mean tumour volume calculated from 10 animals per experimental group. […] Cisplatin was administered intravenously once a week for three weeks at a dose of 4 mg/kg. Taxol was administered intravenously once a week for three weeks at a dose of 10 mg/kg. Antitumour activities were estimated by the inhibition of tumour volume, which was measured with caliper. Each point represents mean tumour volume calculated from 10 animals per experimental group. […] Taxol was administered i.p. once a week at a dose of 10 mg/kg. Antitumour activities were estimated by the inhibition of tumour volume (FIG. 12A), which was measured with calipers. Each point represents mean tumour volume calculated from 10 animals per experimental group. Animals were sacrificed and tumour weights taken at the end of the study (FIG. 12C). […] Cisplatin was administered intravenously once a week for four weeks at a dose of 4 mg/kg. Taxol was administered intravenously once a week for four weeks at a dose of 20 mg/kg. Antitumour activities were estimated by the inhibition of tumour volume, which was measured with caliper. Each point represents mean tumour volume calculated from 9-10 animals per experimental group. […] Cisplatin was administered intravenously once a week for four weeks at a dose of 4 mg/kg. Antitumour activities were estimated by the inhibition of tumour volume, which was measured with caliper. Each point represents mean tumour volume calculated from 10 animals per experimental group. At the end of the study the animals were sacrificed and tumours weighed. […] Taxol was administered i.p. once a week at a dose of 10 mg/kg. Anti-tumour activity was estimated by the inhibition of tumour volume, which was measured with caliper. Each point represents mean tumour volume calculated from 10 animals per experimental group. […] Antitumour activities were estimated by the inhibition of tumour volume, which was measured with caliper. Each point represents mean tumour volume calculated from 10 animals per experimental group. Tumour weights were measured after animals were sacrificed at the end of the treatment. […]

[5] = system: SK-OV-3 human ovary adenocarcinoma cells; assay: SK-OV-3 ovary tumour xenograft in CD-1 nude mice, combination with taxol or cisplatin (1.8); type: in vivo, human cells in mice; settings: SK-OV-3 (ovary), CD-1; SEQ ID NO:1 10 mg/kg i.v. every other day 17 times; Taxol 10 mg/kg weekly; Cisplatin 4 mg/kg weekly
Experimental: as §1

[6] = system: MDA-CDDP-S4 human in vivo-selected Cisplatin-resistant breast adenocarcinoma cells; assay: MDA-CDDP-S4 Cisplatin-resistant breast adenocarcinoma, fat pad, SCID mice (2.3); parameters: species or system human cells in mice; settings: MDA-CDDP-S4 (breast), Cisplatin resistant, SCID; SEQ ID NO:1 10 mg/kg i.v. every other day 9 times; Taxol 10 mg/kg, Cisplatin 4 mg/kg i.v. weekly x3
Experimental: as §2

[7] = system: A498 human kidney cancer cells; assay: A498 kidney tumour xenograft in SCID mice, controls and chemotherapeutics (Example 7); type: in vivo, human cells in mice; settings: oligonucleotides 10 mg/kg/2 days i.v., 5-FU 13 mg/kg/day×5, vinblastine 1 mg/kg/week, gemcitabine 100 mg/kg/week
From the text: CD-1 athymic female nude mice, BALB/c nu/nu nude mice, SCID, and SCID beige mice were purchased from Charles River Laboratories (Montreal, Canada) and experiments were typically initiated when the mice were 6-7 weeks old. […] Each experimental group typically contained 10 mice. After the size of tumour reached a mean tumour volume of 50-100 mm^3, treatment was initiated. […] Anti-tumour activity was estimated by the measurement of tumour volume with a calliper at two-three day intervals. Tumour volume was calculated by a formula L×W×H/2, where L indicates length, W indicates width and H indicates height. Within 24 hours after the last treatment, the animals were sacrificed and tumour and body weights were measured. Results of statistical analyses of the data are presented as P values in the figure legends.
Three additional treatment groups received: 5-FU (13 mg/kg/day×5), vinblastine (1 mg/kg/week) and gemcitabine (100 mg/kg/week). […] Caliper measurements at 1-week intervals were used to calculate tumour volumes. Each point in FIG. 28C represents mean tumour volume calculated from 10 animals per experimental group (with the exception of SEQ ID NO: 1 which was 8 animals). […] After 54 days the mice were sacrificed and the A498 tumours weighed. Each bar represents the mean tumour weight and standard error calculated for each treatment group.

[8] = system: Caki-1 human renal cancer cells; assay: Caki-1 renal tumour xenograft, combination with 5-FU or vinblastin (1.3); type: in vivo, human cells in mice; settings: Caki (renal), CD-1 mouse as printed; SEQ ID NO:1 10 mg/kg i.v. every other day; 5-FU 13 mg/kg/day i.p.; vinblastin 0.6 mg/kg/week i.p.
From the text: All treatments were stopped at day 22. […] All treatments were stopped at day 32. […] All treatments were stopped at day 36.

| Structure (SMILES) | Tumour weight as % of saline control [1] [%] | Tumour weight as % of saline control ([2]; first of two printed values (study and repeat)) [%] | Tumour weight as % of saline control ([2]; second of two printed values (study and repeat)) [%] | Tumour weight as % of saline control ([3]; MDA-MB435-To.1 (breast), Taxol resistant, SCID, SEQ ID NO:1 10 mg/kg i.v. every other day 15 times, Taxol 20 mg/kg, Cisplatin 4 mg/kg i.v. weekly x4) [%] | Antitumour effect (FIG. 13) ([3]; MDA-MB435-To.1 Taxol-resistant, SCID mice, SEQ ID NO:1 10 mg/kg i.v. every other day, Cisplatin 4 mg/kg, Taxol 20 mg/kg i.v. weekly) | Tumour weight as % of saline control ([4]; HL-60 (leukemia), Taxol resistant, SCID, Taxol 10 mg/kg i.p. weekly) [%] | Antitumour effect (FIG. 15) ([4]; HL-60 taxol-resistant, SCID mice, taxol 10 mg/kg i.p. weekly) | tumour volume data as percentage of saline control [5] [%] | Tumour weight as % of saline control [6] [%] | Effect on tumour growth (volume and weight) [7] | Tumour weight as % of saline control [8] [%] |
| --- | --- | --- | --- | --- | --- | --- | --- | --- | --- | --- | --- |
| CC(=O)O[C@H]1C(=O)[C@@]2(C)[C@H]([C@H](OC(=O)c3ccccc3)[C@]3(O)C[C@H](OC(=O)[C@H](O)[C@@H](NC(=O)c4ccccc4)c4ccccc4)C(C)=C1C3(C)C)[C@]1(OC(C)=O)CO[C@@H]1C[C@@H]2O [Taxol, Paclitaxel, reference compound] | 58 | 26 | 61 | 109 | ineffective against Taxol-resistant tumour | 119 | no effect on tumour growth or weight | 49 | 32 | – | – |
| CC[C@]1(O)C[C@@H]2CN(CCc3c([nH]c4ccccc34)[C@@](C(=O)OC)(c3cc4c(cc3OC)N(C)[C@H]3[C@@](O)(C(=O)OC)[C@H](OC(C)=O)[C@]5(CC)C=CCN6CC[C@]43[C@@H]65)C2)C1 [Vinblastine, vinblastine] | – | – | – | – | – | – | – | – | – | ineffective in stabilization of the tumours; also recorded: at best, a delay in the rate of tumour growth | 26 |
